Laboratory results reported in article PMC6100512, “In-Vitro Activity of Silybin and Related Flavonolignans against Leishmania infantum and L. donovani” (Molecules : A Journal of Synthetic Chemistry and Natural …, 2018).

Key:
[1] = test system: intracellular amastigotes of Li BCN150; assay: Activity against intracellular amastigotes ex vivo in mouse peritoneal Mφ; format: cell-based, Leishmania infantum; details: 24 h
Description: (§1) Antiproliferative activity of flavonolignans against intracellular amastigotes was determined ex vivo using mouse peritoneal Mφ. Infections were carried out following the method and modifications described by us. Briefly, Mφ were seeded onto 8-well cell culture slides (SLP, Lifesciences Co., Pocheon, Korea) in a final volume of 400 µL (2.5 × 10^4 Mφ/well). Plates were incubated overnight at 37 °C under humidified 5% CO2/95% air atmosphere to facilitate adherence. Stationary-phase promastigotes of Ld and Li were centrifuged (370× g, 10 min) without break in a Ficoll (Sigma, Saint Louis, MO, USA) gradient (0%, 10% in Medium 199 and 30% in sterile phosphate-buffered saline). Metacyclic promastigotes, located in the 10–30% Ficoll interphase, were recovered, washed and opsonized in 15% normal mouse serum in 1:1 solution of RPMI and HBSS medium (Gibco, Life Technologies, Paisley, UK), 0.15 mM CaCl2 and 1 mM MgCl2 at 37 °C, 5% CO2 atmosphere for 30 min. Purified metacyclic promastigotes were added to the Mφ cultures using a ratio 4:1 (promastigotes:Mφ) for Li and 10:1 for Ld. Plates were incubated at 33 °C overnight as above. Noninternalized promastigotes were eliminated by repeated washing with fresh medium. Treatments (10 µM) were added to the cultures and kept for 24 h. Slides were methanol-fixed and stained with May–Grünwald Giemsa (Merck) to determine the % of infection and the number of amastigotes/100 Mφ under microscope. Cultures untreated, treated with 0.05% DMSO and treated with 0.1 µM AmB were included as controls. Experiments were done in triplicate and the activity was expressed as % of inhibition compared to untreated cultures.

Li UCM9 promastigotes = assay: Multiplication of Li promastigotes in vitro (CellTiter-Glo, 24 h); format: cell-based, Leishmania infantum; details: for inhibition of growth at 120 µM: compared to untreated cultures, mean ± SD, read-out: Reduction (%) of multiplication, L infantum promastigotes
Description: (§2) Growth was estimated by the addition of CellTiter-Glo® (Promega, Madison, WI, USA) (1:1) in 96-well microtiter white plates (Costar, Corning). After 10 min incubation (light protected, room temperature), luminescence was determined with FLUOstar Omega (BMG Labtech) reader. Sensitivity of Ld was similarly performed with promastigotes exposed to 120 μM. Control cultures (medium, untreated promastigotes, promastigotes treated with 0.2 μM AmB) were included. Experiment was carried out in triplicate and results expressed as % of inhibition of untreated control. Approximate IC50 values of the flavonolignans showing the highest inhibitory activity against Li mid-log-phase promastigotes were determined using dose-response curves. […] The compound with the highest activity, DhiS-A, was assayed against Ld promastigotes using the latter dilution series and the same culture conditions as above. For comparative purposes, mid-log promastigotes of Li and Ld were exposed to established anti-Leishmania agents: AmB (0.0078 μ[…] and 1.0 μM); […]

[2] = test system: BALB/c mouse peritoneal macrophages, Mφ; assay: Toxicity of flavonolignans for macrophages (CellTiter-Glo); format: cell-based; details: Peritoneal macrophage, 24 h, 28.125 to 900 µM, approximate
Description: Toxicity of flavonolignans for mammalian cells was determined using mouse peritoneal Mφ. Cells obtained were counted and seeded onto 96-well cultures plates (Costar, Corning) at a final concentration of 5 × 10^4 Mφ/well (100 µL/well). Plates were incubated overnight at 37 °C and humidified 5% CO2/95% air to facilitate adherence. Cells were cultured as above for 24 h with different concentrations of the flavonolignans (28.125 µM, 56.25 µM, 112.5 µM, 225 µM, 450 µM and 900 µM). After incubation, cell viability was determined with CellTiter-Glo® as previously described. Untreated and 300 µM AmB-treated control wells were included. Experiments were done in triplicate and approximate IC50 determined.

Ld promastigotes = assay: Multiplication of Ld promastigotes in vitro (CellTiter-Glo, 24 h); format: cell-based, L. donovani; details: Leishmania donovani; for inhibition of growth at 120 µM: compared to untreated cultures, mean ± SD, read-out: Reduction (%) of multiplication, L. donovani promastigotes
Description: as §2

Li promastigotes = assay: Drug combination with DhiS-A, Chou-Talalay method (CalcuSyn); format: cell-based, Leishmania infantum; details: for DRI of DhiS-A in combination with AmB / Dose Required of DhiS-A in combination with AmB: AmB:DhiS-A 0.01:15; for Dose Required of DhiS-A in combination with AmB / Dose Required of DhiS-A in combination with PMM / Dose Required of DhiS-A in combination with Sb^III: computer-simulated; for DRI of DhiS-A in combination with PMM / Dose Required of DhiS-A in combination with PMM: PMM:DhiS-A 5:1; for DRI of DhiS-A in combination with Sb^III / Dose Required of DhiS-A in combination with Sb^III: Sb^III:DhiS-A 1:1
Description: Fixed-combination ratios of drugs were based on the IC50 values determined for the individual molecules. Mid-log-phase promastigotes of Li were exposed for 24 h at constant ratios of 0.01:15 (AmB:DhiS-A), 1:1 (Sb^III:DhiS-A) and 5:1 (PMM:DhiS-A). Dose–response curves of the combinations were analyzed with the Chou–Talalay method, based on the theorem of combination index (CI)-isobologram and CalcuSyn software. This method allows the evaluation of the type of interaction between two molecules according to mass action law. Results can be used to determine quantitatively the synergy (CI < 1), additive effect (CI = 1) or antagonism (CI > 1) of combinations. Moreover, the program allows the calculation of the drug reduction index (DRI): dose reduction in drug combinations to reach a given inhibition compared to the activity of the individual drugs.

[3] = test system: intracellular amastigotes of Ld; assay: Activity against intracellular amastigotes ex vivo in mouse peritoneal Mφ; format: cell-based, L. donovani; details: 24 h
Description: as §1, with “Slides were methanol-fixed and stained with May–Grünwald Giemsa (Merck) to determine the % of infection and the number of amastigotes/100 Mφ under microscope. Cultures untreated, treated with 0.05% DMSO and treated with 0.1 µM AmB were included as controls.” left out

amastigotes of L. major = test system: amastigotes of L. major; parameters: method as in PMID 29716183; details: cited from earlier work
L. major promastigotes = test system: L. major promastigotes; parameters: method as in PMID 29716183; details: 12.5 µM; cited from earlier work

COc1cc([C@H]2Oc3ccc(-c4oc5cc(O)cc(O)c5c(=O)c4O)cc3O[C@@H]2CO)ccc1O [Dehydroisosilybin A, dehydroisosilybin A]
Antileishmanial activity on intracellular amastigotes (in words) ([1]; 10 µM): ineffective against amastigotes
Intracellular burdens (amastigotes/100 Mφ) after treatment, Li ([1]; 10 µM): did not show any reduction
Antileishmanial activity on intracellular amastigotes (in words) ([1]; 10 µM, listed as DhiS-A): did not show any antiproliferative activity
Mφ infection (%), Li ([1]; treated with 10 µM, nontreated 50.67 ± 4.62%): 45.67 ± 7.51%
inhibition of growth at 120 µM (Li UCM9 promastigotes; Leishmania infantum, 24 h): 38.3 ± 4.96%
IC50 (Li UCM9 promastigotes; Leishmania infantum, approximate, dose-response curve, 24 h): ~90.2 µM
Emax (Li UCM9 promastigotes; Leishmania infantum, exploratory screening, 0.94 µM up to 120 µM, read-out: Maximal effect (inhibition of growth of control cultures) on Li promastigotes): < 50%
Inhibition of Li promastigote multiplication reached in dose-response curve (Li UCM9 promastigotes; maximal concentration used 480/600 µM): complete inhibition
IC50 [2]: ~30 µM
inhibition of growth at 120 µM (Ld promastigotes): 87.6 ± 2.82%
IC50 (Ld promastigotes; approximate, dose-response curve): ~90.2 µM
DRI of DhiS-A in combination with AmB (Li promastigotes; ED10): 0.88
Dose Required of DhiS-A in combination with AmB (Li promastigotes; ED10): 34.79 µM
DRI of DhiS-A in combination with AmB (Li promastigotes; ED25): 1.13
Dose Required of DhiS-A in combination with AmB (Li promastigotes; ED25): 44.61 µM
DRI of DhiS-A in combination with AmB (Li promastigotes; ED50): 1.47
Dose Required of DhiS-A in combination with AmB (Li promastigotes; ED50): 57.21 µM
DRI of DhiS-A in combination with PMM (Li promastigotes; ED50): 0.51
Dose Required of DhiS-A in combination with PMM (Li promastigotes; ED50): 164 µM
DRI of DhiS-A in combination with Sb^III (Li promastigotes; ED50): 1.50
Dose Required of DhiS-A in combination with Sb^III (Li promastigotes; ED50): 56 µM
DRI of DhiS-A in combination with AmB (Li promastigotes; ED75): 1.90
Dose Required of DhiS-A in combination with AmB (Li promastigotes; ED75): 73.36 µM
DRI of DhiS-A in combination with PMM (Li promastigotes; ED75): 0.60
Dose Required of DhiS-A in combination with PMM (Li promastigotes; ED75): 229 µM
DRI of DhiS-A in combination with Sb^III (Li promastigotes; ED75): 0.99
Dose Required of DhiS-A in combination with Sb^III (Li promastigotes; ED75): 141.12 µM
DRI of DhiS-A in combination with AmB (Li promastigotes; ED90): 2.91
Dose Required of DhiS-A in combination with AmB (Li promastigotes; ED90): 94.08 µM
DRI of DhiS-A in combination with PMM (Li promastigotes; ED90): 0.72
Dose Required of DhiS-A in combination with PMM (Li promastigotes; ED90): 318 µM
DRI of DhiS-A in combination with Sb^III (Li promastigotes; ED90): 0.65
Dose Required of DhiS-A in combination with Sb^III (Li promastigotes; ED90): 355.63 µM
DRI of DhiS-A in combination with AmB (Li promastigotes; ED95): 4.28
Dose Required of DhiS-A in combination with AmB (Li promastigotes; ED95): 111.42 µM
DRI of DhiS-A in combination with PMM (Li promastigotes; ED95): 0.81
Dose Required of DhiS-A in combination with PMM (Li promastigotes; ED95): 399 µM
DRI of DhiS-A in combination with Sb^III (Li promastigotes; ED95): 0.49
Dose Required of DhiS-A in combination with Sb^III (Li promastigotes; ED95): 666.84 µM
Intracellular burdens (amastigotes/100 Mφ) after treatment, Ld ([3]; 10 µM): did not show any reduction
Mφ infection (%), Ld ([3]; treated with 10 µM, nontreated 69.67 ± 8.50%): 67.0 ± 6.08%

COc1cc(C2Oc3cc([C@H]4Oc5cc(O)cc(O)c5C(=O)[C@@H]4O)ccc3OC2CO)ccc1O (stereo partly drawn) [Silybin AB, silybin AB]
Antileishmanial activity on intracellular amastigotes (in words) ([1]; 10 µM): no antileishmanial activity was found
Inhibition of the multiplication of amastigotes of L. major (amastigotes of L. major): 53%
inhibition of growth at 120 µM (Li UCM9 promastigotes; Leishmania infantum, 24 h): 5.4 ± 2.02%
Inhibition on Li promastigotes (in words) (Li UCM9 promastigotes; exploratory screening, 0.94 µM up to 120 µM): neither silymarin nor the main component, silybin, elicited any inhibition
inhibition of growth at 120 µM (Ld promastigotes): 37 ± 3.91%

antimoniate of N-methyl glucamine [Sb^V, reference compound]
Sensitivity of Li promastigotes (in words) (Li UCM9 promastigotes; dose-response 3.75-480 µM): insensitive
Reduction of the multiplication of L. major promastigotes (L. major promastigotes): ca. 70%
